Reference: ChEMBL document CHEMBL1127612, “Maleimidoethyl 3-(tri-n-butylstannyl)hippurate: a useful radioiodination reagent for protein radiopharmaceuticals to enhance target selective radioactivity localization” (J Med Chem, 1994)

Assays:
Mus musculus [1] = experiment: Tested for biodistribution of radioactivity after 1 hr of intravenous injection in mice blood; assay type: ADME, organism-based; details: in vivo
Mus musculus [2] = experiment: Tested for biodistribution of radioactivity after 30 min of intravenous injection in mice blood; assay type: ADME, organism-based; details: in vivo, 0.5 h
Mus musculus [3] = experiment: Tested for biodistribution of radioactivity after 3h of intravenous injection in mice blood; assay type: ADME, organism-based; details: in vivo
Mus musculus [4] = experiment: Tested for biodistribution of radioactivity after 6 hr of intravenous injection in mice blood; assay type: ADME, organism-based; details: in vivo
Mus musculus [5] = experiment: Tested for biodistribution of radioactivity after 5 min of intravenous injection in mice liver; assay type: ADME, organism-based; details: in vivo
Mus musculus [6] = experiment: Tested for biodistribution of radioactivity after 5 min of intravenous injection in mice neck; assay type: ADME, organism-based; details: in vivo
Mus musculus [7] = experiment: Tested for biodistribution of radioactivity after 5 min of intravenous injection in mice spleen; assay type: ADME, organism-based; details: in vivo
Mus musculus [8] = experiment: Tested for biodistribution of radioactivity after 5 min of intravenous injection in mice stomach; assay type: ADME, organism-based; details: in vivo
Mus musculus [9] = experiment: Tested for biodistribution of radioactivity after 5 min of intravenous injection in mice kidneys; assay type: ADME, organism-based; details: in vivo
Mus musculus [10] = experiment: Tested for biodistribution of radioactivity after 6 hr of intravenous injection in mice feces; assay type: ADME, organism-based; details: in vivo
Mus musculus [11] = experiment: Tested for biodistribution of radioactivity after 6 hr of intravenous injection in mice intestines; assay type: ADME, organism-based, Intestine; details: in vivo
Mus musculus [12] = experiment: Tested for biodistribution of radioactivity after 6 hr of intravenous injection in mice kidneys; assay type: ADME, organism-based, Kidney; details: in vivo
Mus musculus [13] = experiment: Tested for biodistribution of radioactivity after 6 hr of intravenous injection in mice liver; assay type: ADME, organism-based; details: in vivo
Mus musculus [14] = experiment: Tested for biodistribution of radioactivity after 6 hr of intravenous injection in mice neck; assay type: ADME, organism-based; details: in vivo
Mus musculus [15] = experiment: Tested for biodistribution of radioactivity after 30 min of intravenous injection in mice neck; assay type: ADME, organism-based; details: in vivo, 0.5 h
Mus musculus [16] = experiment: Tested for biodistribution of radioactivity after 30 min of intravenous injection in mice spleen; assay type: ADME, organism-based; details: in vivo, 0.5 h
Mus musculus [17] = experiment: Tested for biodistribution of radioactivity after 30 min of intravenous injection in mice stomach; assay type: ADME, organism-based; details: in vivo, 0.5 h
Mus musculus [18] = experiment: Tested for biodistribution of radioactivity after 3h of intravenous injection in mice intestines; assay type: ADME, organism-based, Intestine; details: in vivo
Mus musculus [19] = experiment: Tested for biodistribution of radioactivity after 3h of intravenous injection in mice kidneys; assay type: ADME, organism-based, Kidney; details: in vivo
Mus musculus [20] = experiment: Tested for biodistribution of radioactivity after 3h of intravenous injection in mice neck; assay type: ADME, organism-based; details: in vivo
Mus musculus [21] = experiment: Tested for biodistribution of radioactivity after 3h of intravenous injection in mice spleen; assay type: ADME, organism-based; details: in vivo
Mus musculus [22] = experiment: Tested for biodistribution of radioactivity after 3h of intravenous injection in mice stomach; assay type: ADME, organism-based; details: in vivo
Mus musculus [23] = experiment: Tested for biodistribution of radioactivity after 1 hr of intravenous injection in mice intestines; assay type: ADME, organism-based, Intestine; details: in vivo
Mus musculus [24] = experiment: Tested for biodistribution of radioactivity after 1 hr of intravenous injection in mice liver; assay type: ADME, organism-based; details: in vivo
Mus musculus [25] = experiment: Tested for biodistribution of radioactivity after 6 hr of intravenous injection in mice spleen; assay type: ADME, organism-based; details: in vivo
Mus musculus [26] = experiment: Tested for biodistribution of radioactivity after 6 hr of intravenous injection in mice stomach; assay type: ADME, organism-based; details: in vivo
Mus musculus [27] = experiment: Tested for biodistribution of radioactivity after 6 hr of intravenous injection in mice urine; assay type: ADME, organism-based; details: in vivo
Mus musculus [28] = experiment: Tested for biodistribution of radioactivity after 1 hr of intravenous injection in mice neck; assay type: ADME, organism-based; details: in vivo
Mus musculus [29] = experiment: Tested for biodistribution of radioactivity after 1 hr of intravenous injection in mice spleen; assay type: ADME, organism-based; details: in vivo
Mus musculus [30] = experiment: Tested for biodistribution of radioactivity after 1 hr of intravenous injection in mice stomach; assay type: ADME, organism-based; details: in vivo
Mus musculus [31] = experiment: Tested for biodistribution of radioactivity after 24 hr of intravenous injection in mice feces; assay type: ADME, organism-based; details: in vivo
Mus musculus [32] = experiment: Tested for biodistribution of radioactivity after 24 hr of intravenous injection in mice intestines; assay type: ADME, organism-based, Intestine; details: in vivo
Mus musculus [33] = experiment: Tested for biodistribution of radioactivity after 24 hr of intravenous injection in mice kidneys; assay type: ADME, organism-based, Kidney; details: in vivo
Mus musculus [34] = experiment: Tested for biodistribution of radioactivity after 24 hr of intravenous injection in mice liver; assay type: ADME, organism-based; details: in vivo
Mus musculus [35] = experiment: Tested for biodistribution of radioactivity after 24 hr of intravenous injection in mice neck; assay type: ADME, organism-based; details: in vivo
Mus musculus [36] = experiment: Tested for biodistribution of radioactivity after 24 hr of intravenous injection in mice spleen; assay type: ADME, organism-based; details: in vivo
Mus musculus [37] = experiment: Tested for biodistribution of radioactivity after 24 hr of intravenous injection in mice stomach; assay type: ADME, organism-based; details: in vivo
Mus musculus [38] = experiment: Tested for biodistribution of radioactivity after 30 min of intravenous injection in mice kidneys; assay type: ADME, organism-based; details: in vivo, 0.5 h
Mus musculus [39] = experiment: Tested for biodistribution of radioactivity after 30 min of intravenous injection in mice lintestines; assay type: ADME, organism-based, Intestine; details: in vivo, 0.5 h
Mus musculus [40] = experiment: Tested for biodistribution of radioactivity after 30 min of intravenous injection in mice liver; assay type: ADME, organism-based; details: in vivo, 0.5 h
Mus musculus [41] = experiment: Tested for biodistribution of radioactivity after 3h of intravenous injection in mice liver; assay type: ADME, organism-based; details: in vivo
Mus musculus [42] = experiment: Tested for biodistribution of radioactivity after 1 hr of intravenous injection in mice kidneys; assay type: ADME, organism-based, Kidney; details: in vivo
Mus musculus [43] = experiment: Tested for biodistribution of radioactivity after 24 hr of intravenous injection in mice urine; assay type: ADME, organism-based; details: in vivo
Mus musculus [44] = experiment: Tested for biodistribution of radioactivity after 24 hr of intravenous injection in mice blood; assay type: ADME, organism-based; details: in vivo
Mus musculus [45] = experiment: Tested for biodistribution of radioactivity after 5 min of intravenous injection in mice blood; assay type: ADME, organism-based; details: in vivo
Mus musculus [46] = experiment: Tested for biodistribution of radioactivity after 5 min of intravenous injection in mice intestines; assay type: ADME, organism-based, Intestine; details: in vivo

SMILES: CCc1ccc(O)c(I)c1
- Dose/g (Mus musculus [1]): 5.14%
- Dose/g (Mus musculus [2]): 5.35%
- Dose/g (Mus musculus [3]): 1.4%
- Dose/g (Mus musculus [4]): 1.59%
- Dose/organ (Mus musculus [5]): 92.49%
- Dose/organ (Mus musculus [6]): 0.04%
- Dose/organ (Mus musculus [7]): 0.06%
- Dose/organ (Mus musculus [8]): 0.25%
- Dose/organ (Mus musculus [9]): 0.01%
- Dose/organ (Mus musculus [10]): 0.31%
- Dose/organ (Mus musculus [11]): 3.06%
- Dose/organ (Mus musculus [12]): 0.57%
- Dose/organ (Mus musculus [13]): 1.13%
- Dose/organ (Mus musculus [14]): 0.21%
- Dose/organ (Mus musculus [15]): 0.7%
- Dose/organ (Mus musculus [16]): 0.3%
- Dose/organ (Mus musculus [17]): 15.65%
- Dose/organ (Mus musculus [18]): 3.43%
- Dose/organ (Mus musculus [19]): 0.83%
- Dose/organ (Mus musculus [20]): 0.25%
- Dose/organ (Mus musculus [21]): 0.1%
- Dose/organ (Mus musculus [22]): 17.5%
- Dose/organ (Mus musculus [23]): 6.73%
- Dose/organ (Mus musculus [24]): 3.68%
- Dose/organ (Mus musculus [25]): 0.06%
- Dose/organ (Mus musculus [26]): 13.22%
- Dose/organ (Mus musculus [27]): 26.84%
- Dose/organ (Mus musculus [28]): 0.34%
- Dose/organ (Mus musculus [29]): 0.23%
- Dose/organ (Mus musculus [30]): 25.55%
- Dose/organ (Mus musculus [31]): 3.22%
- Dose/organ (Mus musculus [32]): 0.21%
- Dose/organ (Mus musculus [33]): 0.04%
- Dose/organ (Mus musculus [34]): 0.37%
- Dose/organ (Mus musculus [35]): 0.01%
- Dose/organ (Mus musculus [36]): 0.02%
- Dose/organ (Mus musculus [37]): 0.11%
- Dose/organ (Mus musculus [38]): 2.07%
- Dose/organ (Mus musculus [39]): 8.28%
- Dose/organ (Mus musculus [40]): 18.72%
- Dose/organ (Mus musculus [41]): 1.44%
- Dose/organ (Mus musculus [42]): 1.73%
- Dose/organ (Mus musculus [43]): 79.66%
- Dose/g (Mus musculus [44]): 0.12%
- Dose/g (Mus musculus [45]): 0.15%
- Dose/organ (Mus musculus [46]): 0.16%
